“And” between values parts separate entries of the source, which are not always exact repeats. Equal entries are not always repeated.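 Grown in 96-well plates, cells were treated for 48 hours with each compound at five concentrations. Insufficient inhibition: endpoint recorded as highest concentration tested. GI50 marks 50% less growth. TGI: concentration producing complete growth inhibition.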
Tests used:
Assay in all cases: growth of human tumour cells (NCI), 48 h
HCC-2998 colon = test system: HCC-2998 colon
UO-31 renal = test system: UO-31 renal
COLO 205 colon = test system: COLO 205 colon
K-562 leukemia = test system: K-562 leukemia
SK-OV-3 ovarian = test system: SK-OV-3 ovarian
SNB-75 CNS = test system: SNB-75 CNS
OVCAR-8 ovarian = test system: OVCAR-8 ovarian
HL-60(TB) leukemia = test system: HL-60(TB) leukemia
MALME-3M melanoma = test system: MALME-3M melanoma
KM12 colon = test system: KM12 colon
UACC-257 melanoma = test system: UACC-257 melanoma
MCF7 breast = test system: MCF7 breast
BT-549 breast = test system: BT-549 breast

Row | Compound | TGI (HCC-2998 colon) [µM] | TGI (UO-31 renal) [µM] | TGI (COLO 205 colon) | TGI (K-562 leukemia) [µM] | TGI (SK-OV-3 ovarian) [µM] | TGI (SNB-75 CNS) | TGI (OVCAR-8 ovarian) [µM] | TGI (HL-60(TB) leukemia) [µM] | TGI (MALME-3M melanoma) [µM] | TGI (KM12 colon) [µM] | TGI (UACC-257 melanoma) [µM] | TGI (MCF7 breast) [µM] | TGI (BT-549 breast) [µM] | GI50 (SNB-75 CNS) | GI50 (OVCAR-8 ovarian) | GI50 (MALME-3M melanoma) | GI50 (MCF7 breast) | GI50 (KM12 colon)
1 | COc1c2c(cc3c1C(=O)Cc1ccc4c(c1CN(C)CC3)OCO4)OCO2 | > 100 | > 100 | > 100 µM | > 100 | > 100 | > 100 µM | > 100 | > 100 | > 100 | > 100 | > 100 | – | – | – | – | – | – | –
2 | O=c1c2c(c1=O)-c1ccccc1CN2 | > 100 | > 100 | > 100 µM | > 100 | > 100 | > 100 µM | > 100 | > 100 | > 100 | > 100 | > 100 | – | – | – | – | – | – | –
3 | C=CC1(C)OC2(CCN(C(=O)OCC)CC2)OC1C (stereo unspecified) | > 100 | > 100 | > 100 µM | > 100 | > 100 | > 100 µM | > 100 | > 100 | > 100 | > 100 | > 100 | > 100 | – | – | – | – | – | –
4 | CC[C@@]1(CCC(=O)NCCc2c[nH]c3ccccc23)CCC(=O)N2CCc3c([nH]c4ccccc34)[C@H]21 | 46.7 | > 100 | > 100 µM | > 100 | > 100 | – | – | – | 25.4 | 19.4 | > 100 | > 100 | 19.2 | – | – | – | – | –
5 | CCCCOC(=O)c1cc(C(=CCC[C@H]2CC[C@@]3(C)[C@@H](CC[C@@H]4[C@@H]3CC[C@]3(C)[C@@H](C(C)CCCC(C)C)CC[C@@H]43)C2)c2cc(Cl)c(O)c(C(=O)OCCCC)c2)cc(Cl)c1O (stereo partly specified) | > 50 | – | > 50 µM | > 5 | – | > 50 µM | > 50 | > 50 | – | > 50 | – | – | > 50 | – | – | – | – | –
6 | CCCC(=O)NC(Nc1ccc(S(=O)(=O)Nc2ccc(OC)nn2)cc1)(C(F)(F)F)C(F)(F)F | > 100 | > 100 | > 100 µM | > 100 | > 100 | > 100 µM | > 100 | > 100 | > 100 | > 100 | > 100 | – | > 100 | – | – | – | – | –
7 | O=c1ccnc2ccc3n[nH][nH]c3c12 | > 100 | – | > 100 µM | > 100 | > 100 | > 100 µM | > 100 | > 100 | > 100 | > 100 | > 100 | – | – | – | – | – | – | –
8 | CCOC(=O)C1(Br)S(=O)(=O)OCCOS1(=O)=O | > 100 | > 100 | > 100 µM | > 100 | > 100 | > 100 µM | > 100 | > 100 | > 100 | – | > 100 | – | – | – | – | – | – | –
9 | COC1C(O)C(C)OC(OC2CCC3(C)C(CCC4C3C(O)CC3(C)C(C5=CC(=O)OC5)CCC43O)C2)C1O (stereo unspecified) | 4.91 | – | 1.57 µM | 5.28 | 0.905 | 2.78 µM | 1.67 | 0.665 | 0.667 | 6.12 | 3.13 | – | 0.429 | – | – | – | – | –
10 | Cn1c(N=P(c2ccccc2)(c2ccccc2)c2ccccc2)c([N+](=O)[O-])c(=O)n(C)c1=O | > 100 | > 100 | > 100 µM | > 100 | > 100 | 91.8 µM | 75.3 | – | > 100 | 80.4 | > 100 | > 100 | > 100 | – | – | – | – | –
11 | COc1cccc(NC(=O)C(=O)C2C=CCS2(=O)=O)c1 (stereo unspecified) | > 100 | > 100 | > 100 µM | > 100 | > 100 | > 100 µM | > 100 | > 100 | > 100 | > 100 | > 100 | – | – | – | – | – | – | –
12 | COC(=O)C1(C)NCCc2c1[nH]c1ccccc21 (stereo unspecified) | > 100 | > 100 | > 100 µM | > 100 | > 100 | > 100 µM | > 100 | – | > 100 | > 100 | – | – | – | – | – | – | – | –
13 | COc1ccc(C(=O)/C=C/c2ccc(OCC(=N)N)cc2)cc1 | 30.4 | 34.1 | 28.6 µM | 20.1 | 25.5 | 20.3 µM | 37.3 | – | 32 | 25.8 | 38.1 | 26.8 | 31.7 | – | – | – | – | –
14 | N#Cc1ccc(C2NN=CC23C(=O)c2ccccc2OC3c2ccccc2)cc1 (stereo unspecified) | > 100 | 96.8 | 38 µM | > 100 | > 100 | – | > 100 | > 100 | > 100 | > 100 | > 100 | 87.4 | – | – | – | – | – | –
15 | CCCNC(=O)N(C)C(=O)N1N=C(c2ccccc2)C1c1ccccc1 (stereo unspecified) | > 100 | > 100 | > 100 µM | > 100 | > 100 | > 100 µM | > 100 | – | > 100 | > 100 | > 100 | > 100 | – | – | – | – | – | –
16 | COC(=O)C1=C(CCC[C@H](C)O[Si](C)(C)C(C)(C)C)NC(=O)N2[C@@H](CCO)CC[C@H]12 | – | 29.7 | 34 µM | > 100 | 30.4 | 30.5 µM | 29.5 | – | 25.9 | 51.2 | 28.9 | – | 28.4 | – | – | – | – | –
17 | COc1cc2c[n+](C)c3c4cc(OC)c(OC)cc4ccc3c2cc1OC | > 100 | > 100 | 42.8 µM and 39.9 µM | > 100 | > 100 | > 100 µM and 98.9 µM | > 100 | – | > 100 | > 100 | > 100 | > 100 | > 100 | > 100 µM and 31.6 µM | 32.9 µM and 15 µM | > 100 µM and 21.7 µM | 35.6 µM and 8.35 µM | > 100 µM and 33.3 µM
18 | CN(C(=O)c1ccc(OCCCC(=O)O)c(Cl)c1Cl)C1CCCC1 | > 100 | > 100 | > 100 µM | > 100 | > 100 | > 100 µM | > 100 | > 100 | > 100 | > 100 | > 100 | > 100 | – | – | – | – | – | –
19 | N#Cc1c(N2CCN(c3ccc([N+](=O)[O-])cc3)CC2)[n+](=O)c2ccccc2n1[O-] | > 100 | – | > 100 µM | > 100 | > 100 | > 100 µM | > 100 | – | > 100 | > 100 | > 100 | > 100 | > 100 | – | – | – | – | –

From PubChem BioAssay (NCI)
